Key:
BMMs = assay: Q-PCR gene expression in BMMs stimulated with TLR agonists (Example 1); format: cell-based, murine; details: for immediate early upregulation of IFNβ, IP10 and RANTES: BMMs, lipid A 1 ng/mL, PGN 10 μg/mL, poly I:C 1 μg/ml, CpG 100 nM, 1 hr
Procedure: (C) BMM's were stimulated with the following TLR-agonists: lipid A (1 ng/mL), peptidoglycan (PGN) (10 μg/mL), poly I:C (I μg/ml), or CpG (100 nM) for 30 min, and cell extracts were used for an in vitro kinase assay using GST-c-jun as a substrate (upper left), identical simulations were repeated for I hr, and RNA was harvested, and used for Q-PCR analysis.
(A) BMMs were stimulated for the indicated time points with the following TLR-agonists: lipid A (1 ng/ml), PGN (20 μg/ml), poly I:C (1 μg/ml), or CpG (100 nM), and RNA was harvested and used for Q-PCR analysis.
Murine bone marrow-derived macrophages (BMMs) were differentiated from marrow from 6-10 week old C57B/6 mice as previously described (Chin, A. I., Dempsey, P. W., Beuhn, K., Miller, J. F., Xu, Y., and Cheng, G. (2002), Nature 416, 190-194). BMMs were maintained in 1× DMEM, 10% fetal bovine serum, 1% penicillin/streptomycin, and 30% L929 conditioned medium, and purity was assayed to be 94-99% CD11b^+. The RAW 264.7 murine macrophage cell line (ATCC: TIB-71) was maintained in 1× DMEM with 10% fetal bovine serum and 1% penicillin/streptomycin. […]
RNA was isolated for both Northern blotting and quantitative real-time PCR (Q-PCR) using a standard guanidium isothiocyanate method. […] For Q-PCR, RNA was quantitated and 2 μg of RNA was used to make cDNA templates using Superscript II (Invitrogen) according the manufactuors instruction with either oligo-dT or random hexamer as primers. […]
We then investigated the TLR-specificity of gene expression in BMMs using specific agonists for TLR4 (lipid A), TLR2 (peptioglycan), TLR3 (poly I:C) and TLR9 (CpG). In order to account for differences in binding affinity and receptor expression, the concentrations of TLR ligands used for stimulation were titrated to produce roughly equivalent activation of the JNK pathway as determined by GST-c-Jun in vitro kinase assay (FIG. 2C, upper left).

STAT1 = details: lipid A 1 ng/ml, poly I:C 1 μg/ml
Procedure: BMMs from both wild-type and IFNAR−/− mice were stimulated with lipid A (1 ng/ml), poly I:C (1 μg/ml), CpG (100 nM), or fresh medium (M) for the indicated time periods, as described in Example 2, infra.
(A): Cell lysates were subjected to western blotting analyses to detect phosphorylated STAT1 (P-STAT1) and total STAT1.
For STAT1 immunoblotting, cells were lysed in modified RIPA buffer and 20 μg of protein were loaded per lane and separated by SDS-PAGE. Gels were transferred to nitrocellulose filters and immunoblotted using the antibody manufacturers' recommended instructions. Antibodies specific to the STAT1 or the phosphorylated forms of STAT1 were obtained from Cell Signaling Technologies and Santa Cruz Biotechnologies, respectively. The anti-MyD88 antibody was purchased from ProSci Incorporated. For detection of MHV68, equal amounts were loaded in each lane and analyzed by western blotting techniques using rabbit anti-M9. Blots were stripped and re-probed with anti-actin (Sigma) to verify equal loading.
To address this issue we stimulated IFNAR^−/− BMMs with lipid A and poly I:C and assayed for STAT1 phosphorylation.

MHV68 = MHV68 replication in BMMs treated with TLR ligands (immunoblot of viral proteins); format: cell-based, Murine gammaherpesvirus 68; details: MOI=5, 48 hours, 10, 1 or 0.1 ng/ml lipid A, 100 nM CpG, 10 μg/ml PGN, 1, 0.1 or 0.01 μg/ml poly I:C
Procedure: (E) BMMs were infected with MHV68 (moi=5) and simultaneously treated with the indicated TLR ligands (100 nM CpG; 10, 1, or 0.1 ng/ml lipid A; 10 μg/ml PGN; or 1, 0.1, or 0.01 μg/ml poly I:C). After 48 hr, cells were harvested and analyzed for MHV68 replication proteins by immunoblotting using rabbit anti-MHV68 antibodies.
Murine gammaherpesvirus 68 (MHV68) was produced and titered as previously described (Wu, T.-T., Tong, L., Rickabaugh, T., Speck, S., and Sun, R. (2001), J. Virol. 75, 9262-9273). For infection of macrophages, cells were simultaneously treated with PAMPs and infected with MHV68 at an MOI of 5. Following an incubation period of 48 hours cells were lysed in Laemmli buffer and 10% of total volume was subjected to SDS-PAGE, transferred to nitrocellulose, and MHV68 proteins detected by western blotting.
BMMs were simultaneously infected with MHV68 (MOI=5) and treated with various TLR ligands (10, 1 or 0.1 ng/ml lipid A, 100 nM CpG, 10 μg/ml PGN or 1, 0.1, or 0.01 μg/ml poly I:C) for 48 hours, and replication of viral proteins was then assayed by western blot analysis. […] This was true whether BMMs were treated with 10 or 20 μg/ml PGN and the inhibition was always considerably weaker than that caused by either 1 ng/ml lipid A or 1 μg/ml poly I:C.

Substance | immediate early upregulation of IFNβ, IP10 and RANTES (BMMs) | STAT1 activation in IFNAR−/− macrophage cells (STAT1) | inhibition of MHV68 replication (MHV68) | gene induction in TLR4-null BMMs (BMMs; BMMs from C57BL/10ScCr mice (null mutation in TLR4 gene))
poly I:C | immediate early upregulation | abolished | significantly inhibit MHV68 replication in a concentration dependent manner | –
lipid A | immediate early upregulation | abolished | significantly inhibit MHV68 replication in a concentration dependent manner | No gene induction

— patent US20060057104A1, “Methods for stimulating tlr irf3 pathways for inducing anti-microbial, anti-inflammatory and anticancer responses” (THE Regents of the University of California Office of the …, priority 2002, published 2006)
